Data reported in PubChem BioAssay (NCI).
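Tested at 5 concentrations; 48 h exposure; 96-well plates; endpoints linearly interpolated, else capped at highest concentration. At the TGI there is no net growth.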

Experiments:
Assay in all cases: NCI tumour cell line growth inhibition, 48 h
DLD-1 colon = tested on: DLD-1 colon
SNB-75 CNS = tested on: SNB-75 CNS
NCI-H23 lung = tested on: NCI-H23 lung
RPMI-8226 leukemia = tested on: RPMI-8226 leukemia
A498 renal = tested on: A498 renal
NCI-H522 lung = tested on: NCI-H522 lung
SK-OV-3 ovarian = tested on: SK-OV-3 ovarian
TK-10 renal = tested on: TK-10 renal
COLO 205 colon = tested on: COLO 205 colon
M14 melanoma = tested on: M14 melanoma
OVCAR-8 ovarian = tested on: OVCAR-8 ovarian
SW-620 colon = tested on: SW-620 colon
HOP-62 NSCLC = tested on: HOP-62 NSCLC
SF-539 CNS = tested on: SF-539 CNS
IGROV1 ovarian = tested on: IGROV1 ovarian
CAKI-1 renal = tested on: CAKI-1 renal
LOX IMVI melanoma = tested on: LOX IMVI melanoma
NCI-H226 lung = tested on: NCI-H226 lung
DMS 273 small cell lung = tested on: DMS 273 small cell lung
HCT-116 colon = tested on: HCT-116 colon
A549 NSCLC = tested on: A549 NSCLC
UACC-257 melanoma = tested on: UACC-257 melanoma
NCI-H460 lung = tested on: NCI-H460 lung
SK-MEL-28 melanoma = tested on: SK-MEL-28 melanoma
KM20L2 colon = tested on: KM20L2 colon
SF-295 CNS = tested on: SF-295 CNS
UO-31 renal = tested on: UO-31 renal
SNB-19 CNS = tested on: SNB-19 CNS
SF-268 CNS = tested on: SF-268 CNS
CCRF-CEM leukemia = tested on: CCRF-CEM leukemia
OVCAR-4 ovarian = tested on: OVCAR-4 ovarian
MALME-3M melanoma = tested on: MALME-3M melanoma
HT29 colon = tested on: HT29 colon
LXFL 529 NSCLC = tested on: LXFL 529 NSCLC
UACC-62 melanoma = tested on: UACC-62 melanoma
HCT-15 colon = tested on: HCT-15 colon
KM12 colon = tested on: KM12 colon
786-0 renal = tested on: 786-0 renal
K-562 leukemia = tested on: K-562 leukemia
SK-MEL-2 melanoma = tested on: SK-MEL-2 melanoma
SK-MEL-5 melanoma = tested on: SK-MEL-5 melanoma
OVCAR-5 ovarian = tested on: OVCAR-5 ovarian
HL-60(TB) leukemia = tested on: HL-60(TB) leukemia
EKVX NSCLC = tested on: EKVX NSCLC
SN12C renal = tested on: SN12C renal
DMS 114 small cell lung = tested on: DMS 114 small cell lung
ACHN renal = tested on: ACHN renal
OVCAR-3 ovarian = tested on: OVCAR-3 ovarian
MOLT-4 leukemia = tested on: MOLT-4 leukemia
HCC-2998 colon = tested on: HCC-2998 colon
NCI/ADR-RES ovarian = tested on: NCI/ADR-RES ovarian
U251 CNS = tested on: U251 CNS
MDA-MB-435 = tested on: MDA-MB-435
BT-549 breast = tested on: BT-549 breast
PC-3 prostate = tested on: PC-3 prostate
HS 578T breast = tested on: HS 578T breast
MDA-N = tested on: MDA-N
RXF 393 renal = tested on: RXF 393 renal
DU-145 prostate = tested on: DU-145 prostate
T-47D breast = tested on: T-47D breast
HOP-92 NSCLC = tested on: HOP-92 NSCLC
MCF7 breast = tested on: MCF7 breast
MDA-MB-231 breast = tested on: MDA-MB-231 breast
SR leukemia = tested on: SR leukemia

Measured: TGI

CC(C)N(C(=O)C12C3C4C1C1C2C3C41C(=O)O)C(C)C (centres undefined)
not listed: NCI/ADR-RES ovarian | U251 CNS | MDA-MB-435 | BT-549 breast | PC-3 prostate | HS 578T breast | MDA-N | RXF 393 renal | DU-145 prostate | T-47D breast | HOP-92 NSCLC | MCF7 breast | MDA-MB-231 breast | SR leukemia
> 100 µM: all other assays above

CCCCC(=O)OC[n+]1cccc(-c2c(COC(=O)NC(C)C)c(COC(=O)NC(C)C)c3n2CCC3)c1
> 81.5 µM: SF-268 CNS
> 85 µM: 786-0 renal
82.8 µM: ACHN renal
> 76 µM: SF-539 CNS
> 92.6 µM: OVCAR-4 ovarian
55.2 µM: RXF 393 renal
> 65.9 µM: LOX IMVI melanoma
49.4 µM: NCI-H522 lung
71.7 µM: UO-31 renal
> 77.4 µM: CCRF-CEM leukemia
70.6 µM: SK-MEL-2 melanoma
60.7 µM: UACC-62 melanoma
49.2 µM: A498 renal
77.2 µM: HOP-92 NSCLC
52.3 µM: SR leukemia
56 µM: CAKI-1 renal
98.7 µM: NCI-H23 lung
> 81.9 µM: HL-60(TB) leukemia
71.6 µM: DU-145 prostate
not listed: DLD-1 colon | DMS 273 small cell lung | KM20L2 colon | LXFL 529 NSCLC | DMS 114 small cell lung
> 100 µM: all other assays above
